Laboratory results: patent US12195744B2, “Identification of T-cell trafficking genes and uses thereof for increasing infiltration of T-cells into solid tumors” (UNIVERSITY OF IOWA RESEARCH FOUNDATION, priority 2017, dated 2025)
Entries after “also recorded” stand apart in the source; their conditions may differ.

What was measured:
[1] = test system: CD8+ T cells in EG7 tumor model; experiment: PD-1 expression in tumor-infiltrating versus splenic CD8+ T cells in EG7 tumor model; type: in vivo, mice; conditions: oral gavage with twice weekly IP aPD1, vs DMSO, listed as iAak1
Excerpt: (§1) FIG. 13 illustrates the results of Aak1 inhibitor (iAak1) on PD-1 expression in tumor-infiltrating versus splenic CD8+ T cells in an EG7 tumor model. Mice were inoculated with EG7 tumor cells. Treatment began three (3) days post tumor inoculation. All mice received twice weekly IP injections of aPD1. Five (5) mice received DMSO, and five (5) mice received Aak1inh via oral gavage on same days as aPD1 treatment.

[2] = test system: EG7 tumors; experiment: Growth of EG7 tumors in mice; type: in vivo; conditions: oral gavage on same days as twice weekly IP aPD1, from 3 days post inoculation, vs DMSO
Excerpt: as §1, with “12” for “13”, “the growth of EG7 tumors” for “PD-1 expression”, “mice.” for “tumor-infiltrating versus splenic CD8+ T cells in an EG7 tumor model.”, “iAak1” for “Aak1inh”

[3] = test system: A20 tumors; experiment: Growth of A20 tumors in mice; type: in vivo
Excerpt: FIG. 15 illustrates the results of Aak1 inhibitor (iAak1) on the growth of A20 tumors in mice. Mice were inoculated with A20 tumor cells. Treatment began ten (10) days post tumor inoculation. All mice received twice weekly IP injections of aPD1. Ten (10) mice received DMSO, and ten (10) mice received iAak1 via oral gavage daily.

[4] = test system: primary mouse CD8+ T cells; experiment: PD-1 expression after in vitro treatment of primary mouse CD8+ T cells; type: cell-based; conditions: activated primary mouse CD8+ T cells, measured at days 6, 7, 8 and 9
Description: FIG. 9 illustrates the results of in vitro treatment of primary mouse CD8+ T cells with Aak1 inhibitor (iAak1 aka LP-935509) on PD-1 expression. Primary mouse CD8+ T cells were treated with the indicated concentration of LP-935509 and PD-1 expression was measured at days 6, 7, 8, and 9.

[5] = test system: primary mouse splenocytes; experiment: PD-1 expression on CD8+ T cells after in vitro treatment of primary mouse splenocytes; type: cell-based; conditions: mouse splenocytes treated with 2 μM iAak1 in vitro
Description: FIG. 11 illustrates the results of in vitro treatment of primary mouse splenocytes with Aak1 inhibitor (iAak1) on PD-1 expression. Mouse splenocytes were treated with 2 μM concentration of iAak1 and PD-1 expression was assayed in CD8+ T cells.

[6] = test system: EG7 cells; experiment: Growth of EG7 cells in vitro; type: cell-based; conditions: concentrations as high as 2 μM; listed as iAak1
Excerpt: FIG. 14 illustrates the results of Aak1 inhibitor (iAak1) on growth of EG7 cells in vitro.

[7] = test system: primary mouse CD8+ T cells; experiment: Cell proliferation after in vitro treatment of primary mouse CD8+ T cells; type: cell-based; conditions: primary mouse CD8+ T cells treated on day 0, optionally activated, assessed days 1-7
Description: FIG. 10 illustrates the results of in vitro treatment of primary mouse CD8+ T cells with Aak1 inhibitor (iAak1) on cell proliferation. Primary mouse CD8+ T cells were treated on day 0 with the indicated concentration of LP-935509 and optionally activated. Cell proliferation was assessed at days 1, 2, 3, 4, 5, 6, and 7.

Question: `COc1ncccc1-c1cnn2ccc(N3CCN(C(=O)OC(C)C)CC3)nc12` [LP-935509] was tested. Which “PD-1 expression in CD8+ T cells isolated from tumors” value [1] did it give?
Answer: increased

Question: What about the “EG7 tumor growth in vivo” value [2] of the same compound?
Answer: increased

Question: And the “CD3+ T cell infiltration of the tumor” value ([3]; A20 tumors, daily oral gavage with twice weekly IP aPD1, vs DMSO)?
Answer: moderate inhibit

Question: And the “A20 tumor growth in vivo” value ([3]; daily oral gavage with twice weekly IP aPD1, from 10 days post inoculation, vs DMSO, listed as iAak1)?
Answer: increased; also recorded: enhanced

Question: And the PD-1 expression [4]?
Answer: transient increase

Question: What about the “PD-1 expression in CD8+ T cells” value [5] of the same compound?
Answer: modest increase; also recorded: increases

Question: And the “EG7 cell proliferation in vitro” value [6]?
Answer: not observed to directly increase; also recorded: did not directly increase

Question: And the cell proliferation [7]?
Answer: modest enhancement

Question: What about the cell proliferation ([7]; listed as iAak1) of the same compound?
Answer: modestly enhances
